{"source": "paper PMC6816764", "about": "(Journal of the American Chemical Society, 2018)", "origin": "cited, not measured here", "key": {"[1]": {"conditions": "cited from earlier work"}, "[2]": {"conditions": "in nitrogen-sparged H2O; cited from earlier work"}}}
{"compound": "[Ru+2].c1ccc(-c2ccccn2)nc1.c1ccc(-c2ccccn2)nc1.c1ccc(-c2ccccn2)nc1", "note": "[[Ru(bpy)3]^2+]", "values": [{"measurement": "ΦΔ of standard", "setting": "[1]; in CH3OH", "value": 0.81}, {"measurement": "Φem of reference", "setting": "[2]", "value": 0.042}]}
{"compound": "[Ru(tpy)(dppn)(py)]^2+", "values": [{"measurement": "1O2 production efficiency", "setting": "[1]; ref 58a", "value": 98, "unit": "%"}]}
